Values after ≈ are worked out from the molar mass of the structure shown.
Tests used:
Type in all cases: functional
[1] = tested on: Pichia kudriavzevii; assay: Antifungal activity against 8 days cultured Candida krusei isolated from neutropenic subject with AML or MDS pharynx after 12 days of prophylaxis by broth microdilution method
[2] = tested on: Nakaseomyces glabratus; assay: Antifungal activity against 111 days cultured Candida glabrata isolated from HSCT recipient with acute or chronic GVHD mouth receiving antifungal therapy for 143 days after 116 days of prophylaxis by broth microdilution method
[3] = tested on: Nakaseomyces glabratus; assay: Antifungal activity against 16 days cultured Candida glabrata isolated from HSCT recipient with acute or chronic GVHD mouth receiving antifungal therapy for 31 days after 28 days of prophylaxis by broth microdilution method
[4] = tested on: Pichia kudriavzevii; assay: Antifungal activity against 8 days cultured Candida krusei isolated from neutropenic subject with AML or MDS stool after 12 days of prophylaxis by broth microdilution method
[5] = tested on: Nakaseomyces glabratus; assay: Antifungal activity against 36 days cultured Candida glabrata isolated from neutropenic subject with AML or MDS pharynx after 48 days of prophylaxis by broth microdilution method
[6] = tested on: Candida albicans; assay: Antifungal activity against Candida albicans isolated from HSCT recipient 031 with acute or chronic GVHD mouth receiving antifungal drug after 109 days prophylaxis by broth microdilution method
[7] = tested on: Candida tropicalis; assay: Antifungal activity against -3 days cultured Candida tropicalis isolated from neutropenic subject with AML or MDS pharynx receiving antifungal therapy for 45 days after 24 days of prophylaxis by broth microdilution method
[8] = tested on: Nakaseomyces glabratus; assay: Antifungal activity against Candida glabrata isolated from neutropenic subject 1318 with AML or MDS stool receiving antifungal drug after 36 days prophylaxis by broth microdilution method
[9] = tested on: Pichia kudriavzevii; assay: Antifungal activity against 1 day cultured Candida krusei isolated from neutropenic subject with AML or MDS pharynx receiving antifungal therapy for 19 days after 6 days of prophylaxis by broth microdilution method
[10] = tested on: Candida tropicalis; assay: Antifungal activity against 2 days cultured Candida tropicalis isolated from neutropenic subject with AML or MDS stool receiving antifungal therapy for 45 days after 24 days of prophylaxis by broth microdilution method
[11] = tested on: Nakaseomyces glabratus; assay: Antifungal activity against Candida glabrata isolated from neutropenic subject 1102 with AML or MDS stool after 26 days prophylaxis by broth microdilution method; conditions: 624 h
[12] = tested on: Nakaseomyces glabratus; assay: Antifungal activity against Candida glabrata isolated from neutropenic subject 1318 with AML or MDS stool after 36 days prophylaxis by broth microdilution method
[13] = tested on: Nakaseomyces glabratus; assay: Antifungal activity against Candida glabrata isolated from neutropenic subject 1102 with AML or MDS stool receiving antifungal drug after 26 days prophylaxis by broth microdilution method; conditions: 624 h
[14] = tested on: Nakaseomyces glabratus; assay: Antifungal activity against Candida glabrata isolated from HSCT recipient 975 with acute or chronic GVHD mouth receiving antifungal drug after 112 days prophylaxis by broth microdilution method
[15] = tested on: Nakaseomyces glabratus; assay: Antifungal activity against Candida glabrata isolated from HSCT recipients with acute or chronic GVHD receiving fluconazole assessed as maximum MIC by broth microdilution method
[16] = tested on: Candida albicans; assay: Antifungal activity against Candida albicans isolated from neutropenic subjects with AML or MDS receiving posaconazole assessed as maximum MIC by broth microdilution method
[17] = tested on: Candida albicans; assay: Antifungal activity against Candida albicans isolated from HSCT recipients with acute or chronic GVHD prior to initiation of posaconazole therapy by broth microdilution method
[18] = tested on: Pichia kudriavzevii; assay: Antifungal activity against 16 days cultured Candida krusei isolated from neutropenic subject with AML or MDS pharynx receiving antifungal therapy for 19 days after 6 days of prophylaxis by broth microdilution method
[19] = tested on: Nakaseomyces glabratus; assay: Antifungal activity against 29 days cultured Candida glabrata isolated from neutropenic subject with AML or MDS pharynx after 48 days of prophylaxis by broth microdilution method
[20] = tested on: Nakaseomyces glabratus; assay: Antifungal activity against Candida glabrata isolated from HSCT recipient 474 with acute or chronic GVHD mouth receiving antifungal drug after 124 days prophylaxis by broth microdilution method
[21] = tested on: Nakaseomyces glabratus; assay: Antifungal activity against Candida glabrata isolated from HSCT recipients with acute or chronic GVHD prior to initiation of posaconazole therapy assessed as maximum MIC by broth microdilution method
[22] = tested on: Nakaseomyces glabratus; assay: Antifungal activity against Candida glabrata isolated from HSCT recipient 807 with acute or chronic GVHD mouth receiving antifungal drug after 114 days prophylaxis by broth microdilution method
[23] = tested on: Nakaseomyces glabratus; assay: Antifungal activity against 31 days cultured Candida glabrata isolated from HSCT recipient with acute or chronic GVHD mouth receiving antifungal therapy for 31 days after 28 days of prophylaxis by broth microdilution method
[24] = tested on: Pichia kudriavzevii; assay: Antifungal activity against 13 days cultured Candida krusei isolated from invasive fungal infected subject blood after 12 days of prophylaxis by broth microdilution method
[25] = tested on: Saccharomyces cerevisiae; assay: Antifungal activity against Saccharomyces cerevisiae isolated from HSCT recipient 513 with acute or chronic GVHD mouth receiving antifungal drug after 112 days prophylaxis by broth microdilution method
[26] = tested on: Nakaseomyces glabratus; assay: Antifungal activity against 43 days cultured Candida glabrata isolated from HSCT recipient with acute or chronic GVHD mouth receiving antifungal therapy for 168 days after 113 days of prophylaxis by broth microdilution method
[27] = tested on: Nakaseomyces glabratus; assay: Antifungal activity against Candida glabrata isolated from neutropenic subject 1331 with AML or MDS pharynx receiving antifungal drug after 21 days prophylaxis by broth microdilution method; conditions: 504 h
[28] = tested on: Candida albicans; assay: Antifungal activity against Candida albicans isolated from HSCT recipients with acute or chronic GVHD prior to initiation of fluconazole therapy by broth microdilution method
[29] = tested on: Nakaseomyces glabratus; assay: Antifungal activity against Candida glabrata isolated from HSCT recipient 975 with acute or chronic GVHD mouth after 112 days prophylaxis by broth microdilution method
[30] = tested on: Candida albicans; assay: Antifungal activity against Candida albicans isolated from HSCT recipient 301 with acute or chronic GVHD mouth receiving antifungal drug after 114 days prophylaxis by broth microdilution method
[31] = tested on: Nakaseomyces glabratus; assay: Antifungal activity against Candida glabrata isolated from HSCT recipient 270 with acute or chronic GVHD mouth receiving antifungal drug after 108 days prophylaxis by broth microdilution method
[32] = tested on: Nakaseomyces glabratus; assay: Antifungal activity against Candida glabrata isolated from neutropenic subjects with AML or MDS receiving posaconazole by broth microdilution method
[33] = tested on: Nakaseomyces glabratus; assay: Antifungal activity against Candida glabrata isolated from HSCT recipient 270 with acute or chronic GVHD mouth after 108 days prophylaxis by broth microdilution method
[34] = tested on: Nakaseomyces glabratus; assay: Antifungal activity against Candida glabrata isolated from HSCT recipient 002 with acute or chronic GVHD mouth receiving antifungal drug after 116 days prophylaxis by broth microdilution method
[35] = tested on: Candida albicans; assay: Antifungal activity against Candida albicans isolated from HSCT recipient 928 with acute or chronic GVHD mouth receiving antifungal drug after 112 days prophylaxis by broth microdilution method
[36] = tested on: Candida albicans; assay: Antifungal activity against Candida albicans isolated from HSCT recipients with acute or chronic GVHD receiving fluconazole assessed as maximum MIC by broth microdilution method
[37] = tested on: Candida albicans; assay: Antifungal activity against Candida albicans isolated from HSCT recipient 262 with acute or chronic GVHD mouth receiving antifungal drug after 115 days prophylaxis by broth microdilution method
[38] = tested on: Nakaseomyces glabratus; assay: Antifungal activity against Candida glabrata isolated from HSCT recipient 807 with acute or chronic GVHD mouth after 114 days prophylaxis by broth microdilution method
[39] = tested on: Nakaseomyces glabratus; assay: Antifungal activity against 29 days cultured Candida glabrata isolated from neutropenic subject with AML or MDS stool after 48 days of prophylaxis by broth microdilution method
[40] = tested on: Nakaseomyces glabratus; assay: Antifungal activity against Candida glabrata isolated from neutropenic subjects with AML or MDS prior to initiation of posaconazole therapy assessed as maximum MIC by broth microdilution method

OC(Cn1cncn1)(Cn1cncn1)c1ccc(F)cc1F [FLUCONAZOLE]
MIC [1]: > 64 µg/mL | MIC [2]: 64 µg/mL (≈ 209 µM) | MIC [3]: < 2 µg/mL | MIC [4]: > 64 µg/mL | MIC [5]: 8 µg/mL (≈ 26.1 µM) | MIC [6]: 128 µg/mL (≈ 418 µM) | MIC [7]: 0.5 µg/mL (≈ 1.63 µM) | MIC [8]: > 64 µg/mL | MIC [9]: 32 µg/mL (≈ 104 µM) | MIC [10]: 0.25 µg/mL (≈ 0.816 µM) | MIC [11]: 4 µg/mL (≈ 13.1 µM) | MIC [12]: 4 µg/mL (≈ 13.1 µM) | MIC [13]: > 64 µg/mL | MIC [14]: 128 µg/mL (≈ 418 µM) | MIC [15]: 64 µg/mL | MIC [16]: 0.25 µg/mL | MIC50 [17]: 0.25 µg/mL (≈ 0.816 µM) | MIC90 [17]: 4 µg/mL (≈ 13.1 µM) | MIC [18]: 64 µg/mL (≈ 209 µM) | MIC [19]: > 64 µg/mL | MIC [20]: 64 µg/mL (≈ 209 µM) | MIC [21]: 64 µg/mL | MIC [22]: 128 µg/mL (≈ 418 µM) | MIC [23]: < 4 µg/mL | MIC [24]: > 64 µg/mL | MIC [25]: 32 µg/mL (≈ 104 µM) | MIC [26]: 64 µg/mL (≈ 209 µM) | MIC [27]: > 64 µg/mL | MIC50 [28]: 0.25 µg/mL (≈ 0.816 µM) | MIC90 [28]: 1 µg/mL (≈ 3.27 µM) | MIC [29]: 4 µg/mL (≈ 13.1 µM) | MIC [30]: 0.25 µg/mL (≈ 0.816 µM) | MIC [31]: 8 µg/mL (≈ 26.1 µM) | MIC50 [32]: 8 µg/mL (≈ 26.1 µM) | MIC90 [32]: 64 µg/mL (≈ 209 µM) | MIC [33]: 8 µg/mL (≈ 26.1 µM) | MIC [34]: 64 µg/mL (≈ 209 µM) | MIC [35]: 128 µg/mL (≈ 418 µM) | MIC [36]: 64 µg/mL | MIC [37]: 2 µg/mL (≈ 6.53 µM) | MIC [38]: 16 µg/mL (≈ 52.2 µM) | MIC [39]: 8 µg/mL (≈ 26.1 µM) | MIC [40]: 32 µg/mL

— ChEMBL document CHEMBL1687752, “Impact of antifungal prophylaxis on colonization and azole susceptibility of Candida species” (2009)
